Assays:
[1] = DRUGMATRIX: Tumor Necrosis Factor (TNF), Non-Selective radioligand binding (ligand: [125I] TNF-alpha); format: cell membranes, Membrane; conditions: u-937; Not Active = under 50% inhibition at 10 µM
[2] = target: Epidermal growth factor receptor (Homo sapiens, UniProt P00533); assay: DRUGMATRIX: Protein Tyrosine Kinase, EGF Receptor enzyme inhibition (substrate: Poly(Glu:Tyr)); format: cell-based, Insect cells; conditions: insect cells; Not Active = under 50% inhibition at 10 µM
[3] = target: Mitogen-activated protein kinase 3 (Homo sapiens, UniProt P27361); assay: DRUGMATRIX: Protein Serine/Threonine Kinase, ERK1 enzyme inhibition (substrate: Myelin Basic Protein); design: species or system Escherichia coli; conditions: Not Active = under 50% inhibition at 10 µM
Histamine H2 receptor = Histamine H2 receptor (Homo sapiens, UniProt P25021); format: cell membranes, CHO-K1, Membrane; note: in other assays of this panel Not Active means under 50% inhibition at 10 µM
[4] = target: 5-hydroxytryptamine receptor 1B (Rattus norvegicus, UniProt P28564); format: cell membranes, Wistar, Cerebral cortex, Membrane; note: in other assays of this panel Not Active means under 50% inhibition at 10 µM
Cytochrome P450 3A4 = Cytochrome P450 3A4 (Homo sapiens, UniProt P08684); conditions: bti-tn-5b1-4; note: in other assays of this panel Not Active means under 50% inhibition at 10 µM
Sequence of Cytochrome P450 3A4 (P08684 whole entry): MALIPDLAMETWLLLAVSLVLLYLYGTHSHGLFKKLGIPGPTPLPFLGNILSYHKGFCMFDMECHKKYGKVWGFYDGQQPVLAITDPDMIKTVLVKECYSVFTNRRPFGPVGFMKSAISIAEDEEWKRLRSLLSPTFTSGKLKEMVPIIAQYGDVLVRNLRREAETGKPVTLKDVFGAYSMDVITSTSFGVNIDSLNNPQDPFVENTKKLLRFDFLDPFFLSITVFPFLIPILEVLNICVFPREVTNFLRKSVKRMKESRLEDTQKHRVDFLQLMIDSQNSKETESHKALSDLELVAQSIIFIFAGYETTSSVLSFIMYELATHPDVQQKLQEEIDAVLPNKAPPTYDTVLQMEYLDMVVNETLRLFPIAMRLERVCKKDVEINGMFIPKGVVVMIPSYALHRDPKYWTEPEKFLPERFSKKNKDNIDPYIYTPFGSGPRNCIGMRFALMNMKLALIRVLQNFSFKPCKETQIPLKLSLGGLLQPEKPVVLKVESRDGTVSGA

Sequence of Mitogen-activated protein kinase 3 (P27361 whole entry): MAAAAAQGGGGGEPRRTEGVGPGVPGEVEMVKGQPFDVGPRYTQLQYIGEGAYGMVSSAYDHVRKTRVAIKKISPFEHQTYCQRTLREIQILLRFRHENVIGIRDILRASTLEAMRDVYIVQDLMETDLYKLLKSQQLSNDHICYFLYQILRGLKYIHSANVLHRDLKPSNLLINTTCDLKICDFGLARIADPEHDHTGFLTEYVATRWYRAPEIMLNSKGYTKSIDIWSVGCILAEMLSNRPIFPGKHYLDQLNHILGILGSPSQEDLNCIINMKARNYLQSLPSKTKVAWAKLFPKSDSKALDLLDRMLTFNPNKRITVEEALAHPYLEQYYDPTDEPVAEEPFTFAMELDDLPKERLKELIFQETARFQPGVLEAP
Sequence of 5-hydroxytryptamine receptor 1B (P28564 whole entry): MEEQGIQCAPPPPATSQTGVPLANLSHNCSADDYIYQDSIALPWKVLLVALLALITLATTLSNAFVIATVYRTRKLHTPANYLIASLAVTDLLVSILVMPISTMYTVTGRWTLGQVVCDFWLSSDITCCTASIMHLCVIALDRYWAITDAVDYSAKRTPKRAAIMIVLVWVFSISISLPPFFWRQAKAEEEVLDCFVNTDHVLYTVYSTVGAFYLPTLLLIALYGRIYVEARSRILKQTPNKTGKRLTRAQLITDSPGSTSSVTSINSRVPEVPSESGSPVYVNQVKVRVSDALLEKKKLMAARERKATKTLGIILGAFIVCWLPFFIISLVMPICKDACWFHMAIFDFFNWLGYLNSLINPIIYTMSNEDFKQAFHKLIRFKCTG
Sequence of Histamine H2 receptor (P25021 whole entry): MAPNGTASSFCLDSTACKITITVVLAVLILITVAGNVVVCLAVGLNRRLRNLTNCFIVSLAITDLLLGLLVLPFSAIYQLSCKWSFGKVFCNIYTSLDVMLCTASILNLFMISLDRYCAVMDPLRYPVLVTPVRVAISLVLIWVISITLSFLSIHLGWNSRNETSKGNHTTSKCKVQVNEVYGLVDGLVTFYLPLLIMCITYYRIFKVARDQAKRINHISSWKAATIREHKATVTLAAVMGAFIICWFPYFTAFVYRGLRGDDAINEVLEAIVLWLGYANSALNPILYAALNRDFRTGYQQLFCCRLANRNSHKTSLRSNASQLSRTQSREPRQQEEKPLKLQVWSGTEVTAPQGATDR

Row | Compound | IC50 [1] | Ki [1] | IC50 [2] | IC50 [3] | IC50 (Histamine H2 receptor; cho-k1) | IC50 [4] | IC50 (Cytochrome P450 3A4) | Ki (Cytochrome P450 3A4) | Ki [2] | Ki [3] | Ki (Histamine H2 receptor; cho-k1) | Ki [4] | IC50 ([3]; read-out: IC50) | IC50 (Histamine H2 receptor; read-out: IC50) | Ki (Histamine H2 receptor; read-out: Ki)
1 | C[C@H]1C[C@@H]2[C@H]([C@@H](O)C[C@@]3(C)[C@H]2CC[C@]3(O)C(=O)CO)[C@@]2(C)C=CC(=O)C=C12 [METHYLPREDNISOLONE] | Not Active | Not Active | Not Active | Not Active | Not Active | Not Active | Not Active | Not Active |  |  |  |  |  |  | 
2 | NC1CCN(c2nc3c(cc2F)c(=O)c(C(=O)O)cn3-c2ccc(F)cc2F)C1 (configuration not stated) [TOSUFLOXACIN] | Not Active | Not Active | Not Active | Not Active | Not Active | Not Active | Not Active | Not Active |  |  |  |  |  |  | 
3 | SODIUM ORTHOVANAD | Not Active | Not Active | Not Active | Not Active | Not Active | Not Active | Not Active | Not Active | Not Active | Not Active | Not Active | Not Active |  |  | 
4 | Cc1c(C)c2c(c(C)c1O)CCC(C)(CN1CCN(c3cc(N4CCCC4)nc(N4CCCC4)n3)CC1)O2 (configuration not stated) | Not Active | Not Active | Not Active |  | Not Active | Not Active |  |  |  |  |  |  | 4960 nM |  | 
5 | O=C(O)c1cn(-c2ccc(F)cc2)c2cc(N3CCNCC3)c(F)cc2c1=O [SARAFLOXACIN] | Not Active | Not Active | Not Active | Not Active | Not Active | Not Active | Not Active | Not Active |  |  |  |  |  |  | 
6 | Nc1cc(N2CCCCC2)nc(N)[n+]1[O-] [MINOXIDIL] | Not Active | Not Active | Not Active | Not Active | Not Active | Not Active | Not Active | Not Active |  |  |  |  |  |  | 
7 | CC(C)NCC(O)c1ccc(NS(C)(=O)=O)cc1 (configuration not stated) [SOTALOL] | Not Active | Not Active | Not Active | Not Active | Not Active | Not Active | Not Active | Not Active |  |  |  |  |  |  | 
8 | CS(=O)(=O)c1ccc([C@@H](O)[C@@H](CO)NC(=O)C(Cl)Cl)cc1 [THIAMPHENICOL] | Not Active | Not Active | Not Active | Not Active | Not Active | Not Active | Not Active | Not Active |  |  |  |  |  |  | 
9 | CN(C)CCOC(c1ccccc1)c1ccccc1 [DIPHENHYDRAMINE] |  |  | Not Active | Not Active | Not Active | Not Active |  |  |  |  |  |  |  |  | 
10 | CCN1CCC[C@H]1CNC(=O)c1cc(S(N)(=O)=O)ccc1OC [LEVOSULPIRIDE] | Not Active | Not Active | Not Active | Not Active | Not Active | Not Active | Not Active | Not Active |  |  |  |  |  |  | 
11 | CCN(CC)CC(=O)Nc1c(C)cccc1C [LIDOCAINE] | Not Active | Not Active | Not Active | Not Active | Not Active | Not Active |  |  |  |  |  |  |  |  | 
12 | CC(c1cc2ccccc2s1)N(O)C(N)=O (configuration not stated) [ZILEUTON] | Not Active | Not Active | Not Active | Not Active | Not Active | Not Active | Not Active | Not Active |  |  |  |  |  |  | 
13 | CCCCNc1ccc(C(=O)OCCN(C)C)cc1 [TETRACAINE] | Not Active | Not Active | Not Active | Not Active | Not Active | Not Active |  |  |  |  |  |  |  |  | 
14 | CNCCC(Oc1ccc(C(F)(F)F)cc1)c1ccccc1 (configuration not stated) [FLUOXETINE] |  |  | Not Active | Not Active | Not Active | Not Active | Not Active | Not Active |  |  |  |  |  |  | 
15 | CC[C@@H](C(=O)[C@@H](C)[C@@H](O)[C@H](C)[C@@H]1O[C@@H]([C@@H](CC)C(=O)O)CC[C@@H]1C)[C@H]1O[C@]2(C=C[C@@H](O)[C@]3(CC[C@@](C)([C@H]4CC[C@](O)(CC)[C@H](C)O4)O3)O2)[C@H](C)C[C@@H]1C [SALINOMYCIN] | Not Active | Not Active | Not Active | Not Active | Not Active | Not Active | Not Active | Not Active |  |  |  |  |  |  | 
16 | Cc1ccc(NC(=O)c2ccc(CN3CCN(C)CC3)cc2)cc1Nc1nccc(-c2cccnc2)n1 [IMATINIB] |  |  |  |  |  | Not Active |  |  |  |  |  |  |  | 1960 nM | 1930 nM
17 | CO[C@H]1/C=C/O[C@@]2(C)Oc3c(C)c(O)c4c(O)c(c(/C=N/N5CCN(C6CCCC6)CC5)c(O)c4c3C2=O)NC(=O)/C(C)=C\C=C\[C@H](C)[C@H](O)[C@@H](C)[C@@H](O)[C@@H](C)[C@H](OC(C)=O)[C@@H]1C [RIFAPENTINE] | Not Active | Not Active | Not Active | Not Active | Not Active | Not Active |  |  |  |  |  |  |  |  | 
18 | CN(C/C=C/C#CC(C)(C)C)Cc1cccc2ccccc12 [TERBINAFINE] | Not Active | Not Active | Not Active | Not Active | Not Active | Not Active |  |  |  |  |  |  |  |  | 

From ChEMBL document CHEMBL1909046, “DrugMatrix in vitro pharmacology data”
